Measured values from publication PMC3867817 (Molecular cell, 2013).

Target: RagB-RagC heterodimer (RagB monitored) (Homo sapiens, UniProt Q5VZM2)
Experiment: GDP dissociation assay
Assay type: binding
Settings: GDP on wild-type RagB with Rag^X partner; not altered by FLCN-FNIP

RagB-RagC heterodimer (RagB monitored), sequence (Q5VZM2 whole entry): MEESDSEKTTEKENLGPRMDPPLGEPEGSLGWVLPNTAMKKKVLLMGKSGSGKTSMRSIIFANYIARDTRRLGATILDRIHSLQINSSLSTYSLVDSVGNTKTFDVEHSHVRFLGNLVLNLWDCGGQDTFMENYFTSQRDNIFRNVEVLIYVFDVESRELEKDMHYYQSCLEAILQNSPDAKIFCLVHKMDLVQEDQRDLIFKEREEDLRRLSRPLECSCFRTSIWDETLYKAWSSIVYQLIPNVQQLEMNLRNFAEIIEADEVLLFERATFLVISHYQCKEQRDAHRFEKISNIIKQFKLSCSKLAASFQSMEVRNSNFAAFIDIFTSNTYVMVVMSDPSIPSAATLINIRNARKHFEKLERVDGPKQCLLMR
RagB-RagC heterodimer (RagB monitored), sequence (Q9HB90 2-399 D181N partner): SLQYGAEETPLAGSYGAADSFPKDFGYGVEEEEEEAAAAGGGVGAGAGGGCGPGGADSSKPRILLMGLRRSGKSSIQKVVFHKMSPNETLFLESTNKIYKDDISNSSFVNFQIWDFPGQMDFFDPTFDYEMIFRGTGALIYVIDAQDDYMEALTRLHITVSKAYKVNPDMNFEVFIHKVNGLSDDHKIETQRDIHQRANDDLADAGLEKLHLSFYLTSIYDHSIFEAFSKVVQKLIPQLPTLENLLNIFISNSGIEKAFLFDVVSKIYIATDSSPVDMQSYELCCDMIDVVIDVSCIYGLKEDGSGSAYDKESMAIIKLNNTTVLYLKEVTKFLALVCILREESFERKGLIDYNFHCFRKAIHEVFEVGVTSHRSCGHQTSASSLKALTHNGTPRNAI

Nc1nc2c(ncn2[C@@H]2O[C@H](COP(=O)(O)OP(=O)(O)O)[C@@H](O)[C@H]2O)c(=O)[nH]1 [GDP]
GDP dissociation assay: did not stimulate or inhibit the dissociation of GDP from RagB or RagC
